According to patent publication US10954252B1, “Inhibitors of human immunodeficiency virus replication” (ViiV HEALTHCARE UK (NO.5) LIMITED, priority 2017, dated 2021):

Experiments:
[1] = system: recombinant NL4-3 virus (nef section replaced with Renilla luciferase gene) in MT-2 cells; assay: HIV cell culture assay (antiviral activity, luciferase readout); assay type: cell-based; conditions: MT-2 cells infected for 4-5 days with recombinant NL4-3 luciferase virus
Procedure, shortened: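 NL4-3 reporter virus carrying Renilla luciferase in place of part of nef, produced in 293T cells, was used to infect MT-2 cells for 4-5 days with serial compound dilutions. Luciferase activity was read with a live-cell substrate; EC50 derived from the median effect equation.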

[2] = Compound cytotoxicity, XTT-based colorimetric assay; assay type: cell-based; conditions: human, uninfected MT2 cells
Procedure, shortened: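 CC50 from uninfected MT2 cells run under the antiviral-assay protocol without virus. Viability read on day 4 by XTT colorimetric assay.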

SMILES | EC50 ([1]; Renilla, NL43, Table 1a) | CC50 at 4 days ([2]; Table 1a, day 4, XTT) | EC50 ([1]; Renilla, NL43, Table 1) | CC50 at 4 days ([2]; Table 1, day 4, XTT) | other results
CN1CCN(S(=O)(=O)c2ccc(-c3cc4[nH]ncc4nc3[C@H](Cc3cc(F)cc(F)c3)NC(=O)Cn3nc(C(F)F)c4c3C(F)(F)[C@@H]3C[C@H]43)cc2)CC1 [Example 28, 2-((3bS,4aR)-3-(difluoromethyl)-5,5-difluoro-3b,4,4a,5-tetrahydro-1H-cyclopropa[3,4]cyclopenta[1,2-c]pyrazol-1-yl)-N—((S)-2-(3,5-difluorophenyl)-1-(6-(4-((4-methylpiperazin-1-yl)sulfonyl)phenyl)-1H-pyrazolo[4,3-b]pyridin-5-yl)ethyl)acetamide] | 19.9 nM | > 10000 nM | – | – | –
CC(C)c1ccc(-n2c([C@H](Cc3cc(F)cc(F)c3)NC(=O)Cn3nc(C(F)F)c4c3C(F)(F)[C@@H]3C[C@H]43)nc3ncccc3c2=O)cc1 [Example 10.35] | – | – | 1.7 nM | 1900 nM | –
Cn1nc(NS(C)(=O)=O)c2c(Cl)ccc(-n3c([C@H](Cc4cc(F)cc(F)c4)NC(=O)Cn4nc(C(F)F)c5c4C(F)(F)[C@@H]4C[C@H]54)nc4cc(F)ccc4c3=O)c21 [Example 18, N—((S)-1-(3-(4-chloro-1-methyl-3-(methylsulfonamido)-1H-indazol-7-yl)-7-fluoro-4-oxo-3,4-dihydroquinazolin-2-yl)-2-(3,5-difluorophenyl)ethyl)-2-((3bS,4aR)-3-(difluoromethyl)-5,5-difluoro-3b,4,4a,5-tetrahydro-1H-cyclopropa[3,4]cyclopenta[1,2-c]pyrazol-1-yl)acetamide] | – | – | 36 nM | > 10000 nM | –
Cn1nc(NS(C)(=O)=O)c2c(Cl)ccc(-n3c([C@H](Cc4cc(F)cc(F)c4)NC(=O)Cn4ccc(C5CC5)n4)nc4cc(C(C)(C)S(C)(=O)=O)ccc4c3=O)c21 (single isomer, unassigned) [Example 212] | 0.63 nM | > 1000 nM | – | – | –
Cn1nc(NS(C)(=O)=O)c2c(Cl)ccc(-n3c([C@H](Cc4cc(F)cc(F)c4)NC(=O)Cn4nc(C(F)F)c5c4C(F)(F)[C@@H]4C[C@H]54)nc4cc(CS(C)(=O)=O)ccc4c3=O)c21 (mixture of isomers) [Example 201, N—((S)-1-(3-(4-chloro-1-methyl-3-(methylsulfonamido)-1H-indazol-7-yl)-7-((methylsulfonyl)methyl)-4-oxo-3,4-dihydroquinazolin-2-yl)-2-(3,5-difluorophenyl)ethyl)-2-((3bS,4aR)-3-(difluoromethyl)-5,5-difluoro-3b,4,4a,5-tetrahydro-1H-cyclopropa[3,4]cyclopenta[1,2-c]pyrazol-1-yl)acetamide] | – | > 1000 nM | – | – | EC50 ([1]; Table 1a): 71.8 nM
Cc1ccc(C)c2c(=O)n(-c3ccc(Cl)c4c(NS(C)(=O)=O)nn(C)c34)c(C(Cc3cc(F)cc(F)c3)NC(=O)Cn3nc(C(F)F)c4c3C(F)(F)[C@@H]3C[C@H]43)nc12 (mixture of isomers) [Example 67] | 183 nM | > 1000 nM | – | – | –
Cn1nc(NS(C)(=O)=O)c2c(Cl)ccc(-n3c([C@H](Cc4cc(F)cc(F)c4)NC(=O)Cn4nc(C(F)F)c5c4C(F)(F)[C@@H]4C[C@H]54)nc4ccccc4c3=O)c21 (single isomer, unassigned) [Example 16] | – | – | 49 nM | > 10000 nM | –
CC(C)n1nc(NS(C)(=O)=O)c2c(Cl)ccc(-n3c(C(Cc4cc(F)cc(F)c4)NC(=O)Cn4nc(C(F)F)c5c4C(F)(F)[C@@H]4C[C@H]54)nc4ncccc4c3=O)c21 (mixture of isomers) [Example 43.1] | 30 nM | > 10000 nM | – | – | –
Cn1nc(NS(C)(=O)=O)c2c(Cl)ccc(-c3cc4cn[nH]c4nc3C(Cc3cc(F)cc(F)c3)NC(=O)Cn3nc(C(F)F)c4c3C(F)(F)[C@@H]3C[C@H]43)c21 (single isomer, unassigned) [Example 6.1] | – | – | – | > 10000 nM | EC50 ([1]; Table 1): 1020 nM
COc1ccc(-n2c([C@H](Cc3cc(F)cc(F)c3)NC(=O)Cn3nc(C(F)F)c4c3C(F)(F)[C@@H]3C[C@H]43)nc3ccccc3c2=O)cc1 [Example 10.31] | – | – | 18 nM | > 10000 nM | –
COc1ccc(-n2c([C@H](Cc3cc(F)cc(F)c3)NC(=O)Cc3c[nH]c4ccc(O)cc34)nc3ccccc3c2=O)cc1 [Example 10.30] | – | – | 8 nM | > 10000 nM | –
Cn1nc(NS(C)(=O)=O)c2c(Cl)ccc(-c3cc4[nH]ncc4nc3[C@@H](Cc3cc(F)cc(F)c3)NC(=O)Cn3nc(C(F)F)c4c3C(F)(F)[C@@H]3C[C@H]43)c21 [Example 3.8, N—((R)-1-(6-(4-chloro-1-methyl-3-(methylsulfonamido)-1H-indazol-7-yl)-1H-pyrazolo[4,3-b]pyridin-5-yl)-2-(3,5-difluorophenyl)ethyl)-2-((3bS,4aR)-3-(difluoromethyl)-5,5-difluoro-3b,4,4a,5-tetrahydro-1H-cyclopropa[3,4]cyclopenta[1,2-c]pyrazol-1-yl)acetamide] | – | – | 21 nM | 10200 nM | –
Cn1nc(NS(C)(=O)=O)c2c(Cl)ccc(-n3c([C@H](Cc4cc(F)cc(F)c4)NC(=O)Cn4nc(C(F)F)c5c4C(F)(F)[C@@H]4C[C@H]54)nc4ccc(F)c(Cl)c4c3=O)c21 (mixture of isomers) [Example 159, N—((S)-1-(5-chloro-3-(4-chloro-1-methyl-3-(methylsulfonamido)-1H-indazol-7-yl)-6-fluoro-4-oxo-3,4-dihydroquinazolin-2-yl)-2-(3,5-difluorophenyl)ethyl)-2-((3bS,4aR)-3-(difluoromethyl)-5,5-difluoro-3b,4,4a,5-tetrahydro-1H-cyclopropa[3,4]cyclopenta[1,2-c]pyrazol-1-yl)acetamide] | 9.49 nM | > 1000 nM | – | – | –
O=C(Cn1nc(C(F)F)c2c1C(F)(F)[C@@H]1C[C@H]21)N[C@@H](Cc1cc(F)cc(F)c1)c1nc2cn[nH]c2cc1-c1ccc2c(c1)CNC2=O [Example 10.12, 2-((3bS,4aR)-3-(difluoromethyl)-5,5-difluoro-3b,4,4a,5-tetrahydro-1H-cyclopropa[3,4]cyclopenta[1,2-c]pyrazol-1-yl)-N—((S)-2-(3,5-difluorophenyl)-1-(6-(1-oxoisoindolin-5-yl)-1H-pyrazolo[4,3-b]pyridin-5-yl)ethyl)acetamide] | – | – | 95 nM | > 10000 nM | –
COc1ccc2c(=O)n(-c3ccc(Cl)c4c(NS(=O)(=O)C5CC5)nn(CC(F)F)c34)c([C@H](Cc3cc(F)cc(F)c3)NC(=O)Cn3nc(C(F)F)c4c3C(F)(F)[C@@H]3C[C@H]43)nc2n1 (mixture of isomers) [Example 56.2, N-[(1S)-1-{3-[4-chloro-3-cyclopropanesulfonamido-1-(2,2-difluoroethyl)-1H-indazol-7-yl]-7-methoxy-4-oxo-3H,4H-pyrido[2,3-d]pyrimidin-2-yl}-2-(3,5-difluorophenyl)ethyl]-2-[(2S,4R)-9-(difluoromethyl)-5,85-difluoro-7,8-diazatricyclo[4.3.0.0^2,4]nona-1(6),8-dien-7-yl]acetamide] | 0.022 nM | > 1000 nM | – | – | –
